Measured values reported in patent US7947697B1, “8-(3-pentylamino)-2-methyl-3-(2-chloro-4-methoxyphenyl)-6,7-dihydro-5H-cyclopenta[d] pyrazolo[1,5-a]pyrimidine methanesulfonate as a CRF antagonist” (Ono Pharmaceutical Co., Ltd., priority 2003, dated 2011).
“Also recorded” adds a separate entry of the source.

Legend:
[1] = Thermal stability by differential scanning calorimetry (DSC); type: physicochemical; details: for thermal stability: DSC chart / heat
Excerpt: On the other hand, DSC chart of 8-(3-pentylamino)-2-methyl-3-(2-chloro-4-methoxyphenyl)-6,7-dihydro-5H-cyclopenta[d]pyrazolo[1,5-a]pyrimidine hydrochloride described in WO 02/053565 is shown in FIG. 2.
It was very surprising that the difference of the salt influenced heat stability like this greatly, and it was not easily expected.
(3) Differential Scanning Calorimeter (DSC)

human CRF1 receptor [2] = biological target: T1, human CRF1 receptor (Homo sapiens, UniProt P34998); test: Binding assay ([125I] h/r CRF, cell membrane fraction); details: membrane fraction of CHO-K1 cells expressing human CRF1 receptor; [125I] h/r CRF 0.25 nM; 2 hours, room temperature; read-out: affinity on CRF1 receptor (IC50)
T1 construct: expressed in transfected cells; F-12 medium fits
T1 sequence (P34998 24-415): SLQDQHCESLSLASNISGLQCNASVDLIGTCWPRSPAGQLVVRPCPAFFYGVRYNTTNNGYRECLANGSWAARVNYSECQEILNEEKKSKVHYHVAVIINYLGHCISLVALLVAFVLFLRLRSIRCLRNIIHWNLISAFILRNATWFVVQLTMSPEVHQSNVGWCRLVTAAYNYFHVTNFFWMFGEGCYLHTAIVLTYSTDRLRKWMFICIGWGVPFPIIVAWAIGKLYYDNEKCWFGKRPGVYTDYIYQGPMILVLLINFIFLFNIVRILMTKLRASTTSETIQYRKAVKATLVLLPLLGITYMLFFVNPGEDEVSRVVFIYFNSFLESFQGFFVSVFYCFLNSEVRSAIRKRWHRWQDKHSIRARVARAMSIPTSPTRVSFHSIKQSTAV
Experimental: Cell Membrane Preparation
After a cell line expressing a human CRF1 receptor (expressed cell line: CHO-K1 cells) was cultured to reach confluence, the cells were harvested with a scraper. Harvested cells were washed twice with PBS before being suspended in a binding assay buffer (Tris-HCl (50 mM, pH 7.0), EDTA (2 mM, pH 8.0), and MgCl2 (10 mM)) cooled by ice. Suspended cells were homogenized with a Downs-type homogenizer and subjected to centrifugation at 10,000 g to collect the membrane fraction. The harvested cell membrane fraction was re-suspended with a small quantity of the binding assay buffer, and further diluted with said buffer to 1 mg/mL. The membrane fraction thus obtained was used for binding assay.
Fifty μL of [^125I] h/r CRF prepared to 0.5 nM with binding assay buffer was added to siliconized 1.5 mL tubes. Each of 1 μL of compounds diluted in appropriate multiples, DMSO (for total binding use) and h/r CRF solution (100 μM, for the non-specific binding use) was added to the tubes. Samples of 50 μL each of the membrane fraction preparation were added to the tubes to initiate the reaction (final concentration of [^125I] h/r CRF: 0.25 nM), then the mixtures were incubated for 2 hours at room temperature. […] Radioactivity values of the respective tubes were measured with a γ-counter. […]

human CRF1 receptor [3] = biological target: T1, human CRF1 receptor; test: Receptor antagonistic activity (cyclic AMP assay); type: cell-based; details: cells expressing human CRF1 receptor; human/rat CRF-stimulated intracellular cyclic AMP; read-out: antagonist activity on CRF receptor (IC50)
Experimental: Receptor Antagonistic Activity (Cyclic AMP Assay):
A cell line expressing a human CRF1 receptor was cultured using 10% bovine embryo serum and 1% F-12 nutrient mixture containing antibiotics and antifungal under 37° C., 5% carbonic anhydride, 95% air. On the day before a measurement of cyclic AMP, the cell seed to 96-well plate to be 1×10^4 cell/well. On the measurement day, the cell was washed twice with F-12 nutrient mixture, and F-12 nutrient mixture/1 mM 3-isobutyl-1-methylxanthin (assay medium) (178 μL) was added to each well. After they were incubated for 10 minutes at 37° C., each of various concentrated solutions of the test compound (2 μL) was added, or DMSO (2 μL) was added to CRF group and blank group. After they were incubated for 15 minutes at 37° C., 10 nM assay medium containing human/rat CRF (20 μL) was added to the test compound group and CRF group. To the blank group, an assay medium containing 0.00001% acetic acid (20 μL) was added. Furthermore, they were incubated for 15 minutes at 37° C. […] The cumulative dosage of intracellular cyclic AMP was measured by Biotrak enzyme immunoassay system (Amersham Biosciences). […] The IC50 values calculated by nonlinear regression analysis with logarithm concentrate of the compound as the autonomous variable and cyclic AMP cumulative dosage as an induced variable

Solubility = type: physicochemical
[4] = Stability of the crystal for humidity and light; type: physicochemical

With `C1=Cc2cccc(OC[C@H]3CNCCO3)c2C1.O=S(=O)(O)c1ccccc1` [benzenesulfonate] the thermal stability [1] was “superior in thermal stability”.
With `CCC(CC)Nc1c2c(nc3c(-c4ccc(OC)cc4Cl)c(C)nn13)CCC2.Cc1ccc(S(=O)(=O)O)cc1` [tosylate, 8-(3-pentylamino)-2-methyl-3-(2-chloro-4-methoxyphenyl)-6,7-dihydro-5H-cyclopenta[d]pyrazolo[1,5-a]pyrimidine tosylate] the thermal stability [1] was “superior in thermal stability”.
In the case of `CC1(C)C2CCC1(CS(=O)(=O)O)C(=O)C2.CCC(CC)Nc1c2c(nc3c(-c4ccc(OC)cc4Cl)c(C)nn13)CCC2` [camphorsulfonate (D, L, or DL)], the thermal stability [1] is reported as “superior in thermal stability”.
In the case of `CCC(CC)Nc1c2c(nc3c(-c4ccc(OC)cc4Cl)c(C)nn13)CCC2.Cl` [the hydrochloride compound, 8-(3-pentylamino)-2-methyl-3-(2-chloro-4-methoxyphenyl)-6,7-dihydro-5H-cyclopenta[d]pyrazolo[1,5-a]pyrimidine hydrochloride, reference compound], the thermal stability ([1]; hydrochloride) is reported as “unstable compound to heat”, the thermal stability ([1]; listed as 8-(3-pentylamino)-2-methyl-3-(2-chloro-4-methoxyphenyl)-6,7-dihydro-5H-cyclopent, hydrochloride) is reported as “poor” and the “temperature at which the DSC curve changed significantly” value ([1]; DSC chart FIG. 2, then changed gradually after over 50° C.) is reported as ~40 °C.
In the case of `CCC(CC)Nc1c2c(nc3c(-c4ccc(OC)cc4Cl)c(C)nn13)CCC2` [compound (1), 8-(3-pentylamino)-2-methyl-3-(2-chloro-4-methoxyphenyl)-6,7-dihydro-5H-cyclopenta[d]pyrazolo[1,5-a]pyrimidine methanesulfonate], the IC50 (human CRF1 receptor [2]) is reported as < 1000 nM, the IC50 (human CRF1 receptor [3]) is reported as < 1000 nM and the thermal stability ([1]; listed as the methanesulfonate compound, methanesulfonate) is reported as “superior thermal stability”. The thermal stability ([1]; methanesulfonate) was “steady; also recorded: superior in thermal stability”, the solubility (Solubility) was “remarkably superior” and the disposition (Disposition) was “remarkably superior”. For the same molecule, the toxicity (Toxicity) was “very low”, the stability for humidity [4] was “steady” and the stability for light [4] was “steady”.
